# According to patent US6579967B1, “Receptor-selective somatostatin analogs” (The Salk Institute for Biological Studies, priority 1999, dated 2003):
# Biological target: T1, human SSTR3 (Homo sapiens, UniProt P32745)
# T1 construct: expressed in transfected cells; host or cells: CHO-K1 cells and CCL39 cells
# Assay: Displacement of 125I-[Leu8,D-Trp22,Tyr25]-somatostatin-28 from cloned SSTR3 (receptor autoradiography on membrane pellets)
# Type: binding
# Conditions: qualitative statement
# Method: Generally, recombinant cells expressing the receptor are washed and homogenized to prepare a crude protein homogenate in a suitable buffer, as known in the art. In a typical assay, an amount of protein from the cell homogenate is placed into a small volume of an appropriate assay buffer at an appropriate pH. Candidate substances, such as potential SRIF agonists and antagonists, are added to the admixture in convenient concentrations, and the interaction between the candidate substance and the receptor polypeptide is monitored.
# Receptor binding assays are performed on cloned SRIF receptors as generally set forth in Raynor et al. supra. Using such assays, one can generate KD values which are indicative of the concentration of a ligand necessary to occupy one-half (50%) of the binding sites on a selected amount of a receptor or the like, or alternatively, competitive assays can generate IC50 values which are indicative of the concentration of a competitive ligand necessary to displace a saturation concentration of a target ligand being measured from 50% of binding sites. The peptide des-AA^1,2,4,5,12,13-[D-Agl^8(Me,2-naphthoyl)]SRIF inhibits the binding to SSTR3 of an iodinated SRIF-28 ligand that has strong affinity for all five receptors.
# In vitro Bioassay: The various somatostatin analogs are tested in vitro for their ability to bind to isolated cloned receptors expressed on CHO-K1 cells and CCL39 cells. CHO-K1 cells are grown in Ham's F-12 medium, and CCL39 cells are grown in Dulbecco's modified Eagle's medium/Ham's F-12(1:1) mix, supplemented with 10% fetal bovine serum, 100 U/ml penicillin and 100 μg/ml streptomycin, in humidified air containing 5% CO2 at 37° C.
# Cells are washed twice with and scraped into ice-cold 0.05 M Tris-HCl (pH 7.4), collected by centrifugation, and homogenized using a rotor/stator slash system in the same buffer. After centrifugation at 120 g for 5 min. at 4° C., the supernatant is collected and centrifuged again at 48,000 g for 30 min. at 4° C. The resulting pellet is resuspended in ice-cold Tris buffer, transferred into a microfuge tube, and centrifuged at 20,000 g for 15 min. at 4° C. After withdrawal of the supernatant, the membrane pellet is stored at −80° C.
# Receptor autoradiography is performed on 20 μm thick cryostat sections of the membrane pellets, mounted on microscope slides, and then stored at −20° C. For each of the tested compounds, complete displacement experiments are performed with the universal somatostatin ligand radioligand ^125I-[Leu^8,D-Trp^22,Tyr^25]-somatostatin-28 that binds with strong affinity to all five receptors. Increasing concentrations of the unlabeled peptide are used ranging from 0.1-1000 nM. Unlabeled somatostatin-28 is run in parallel using the same increasing concentrations, as a control. IC50 values are calculated after quantification of the data using a computer-assisted image processing system as known in this art.
# The potencies of certain SRIF analogs to inhibit radioligand binding of ^125I-[Leu^8,D-Trp^22,[…]]SRIF-28 to the various cloned SRIF receptors are shown in the following table wherein the IC50 values are given in nanomolar concentration.
# T1 sequence (P32745 whole entry): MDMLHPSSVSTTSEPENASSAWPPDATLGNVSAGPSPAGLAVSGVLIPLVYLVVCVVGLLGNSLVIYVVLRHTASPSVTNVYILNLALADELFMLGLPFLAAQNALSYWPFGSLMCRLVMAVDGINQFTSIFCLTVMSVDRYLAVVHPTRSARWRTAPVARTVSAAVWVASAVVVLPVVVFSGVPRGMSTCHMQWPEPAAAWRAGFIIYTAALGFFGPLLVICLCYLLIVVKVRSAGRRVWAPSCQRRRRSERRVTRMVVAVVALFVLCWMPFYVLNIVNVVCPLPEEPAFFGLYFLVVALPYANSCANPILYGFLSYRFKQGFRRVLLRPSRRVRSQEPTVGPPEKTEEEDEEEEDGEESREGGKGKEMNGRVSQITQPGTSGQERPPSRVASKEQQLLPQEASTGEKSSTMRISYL
row,Substance,"binding strength and selectivity for SSTR3, in words"
1,"(cyclo 3-14)H-Cys-Lys-Asn-Phe-Tyr-D-Agl(Me,2Np)-Lys-Thr-Phe-Thr-Ser-Cys-OH [Peptide No. 2G]",binds selectively to SSTR3 but has fairly low affinity for all five SRIF receptors
2,"(cyclo 3-14)Cbm-D-Cys-Phe-Tyr-D-Agl(Me,2Np)-Lys-Thr-Aph(Cbm)-Cys-OH [Peptide No. 2N]",bind strongly and selectively to SSTR3
3,"(cyclo 3-14)Cbm-D-Cys-Phe-Tyr-D-Agl(Me,2Np)-Lys-Thr-Aph(Ac)-Cys-OH [Peptide No. 2M]",bind strongly and selectively to SSTR3
4,"(cyclo 3-14)Cbm-D-Cys-Phe-Tyr-D-Agl(Me,2Np)-Lys-Thr-Aph-Cys-OH [Peptide No. 2L]",bind strongly and selectively to SSTR3
5,"(cyclo 3-14)Cbm-D-Cys-Phe-Agl(NMe,Bz)-D-2Nal-Lys-Thr-Phe-Cys-OH [Peptide No. 3C]",bind selectively to human SSTR3
6,"(cyclo 3-14)H-D-Cys-Phe-Agl(NMe,Bz)-D-2Nal-Lys-Thr-Phe-Cys-OH [Peptide No. 3A]",bind selectively to SSTR3
7,"(cyclo 3-14)H-Cys-Phe-Agl(Me,Bz)-D-1Nal-Lys-Thr-Phe-Cys-OH [Peptide No. 3B]",bind selectively to human SSTR3
